Experiment [1] relates to engineered form of the protein streptavidin. Put plainly: Detection of acetic acid contamination of the arginine synthesis reagent: streptavidin signal output on control peptide features. The format is binding. As for the experimental part:
In another example according to the present disclosure, a control peptide sequence was used to identify the presence of a contaminant in the arginine synthesis reagent. Preliminarily, it was determined using the methods described herein that the control peptide sequence [N]-GYERPGWKLAG-[C] (SEQ ID NO:19) can be used to detect the presence (or absence) of acetic acid in one or more of the synthesis reagents used to synthesize a population of peptides including the control peptide sequence GYERPGWKLAG (SEQ ID NO:19). In the present example, peptide sequences were synthesized from the C-terminus to the N-terminus. Using this synthesis scheme, it was determined that the amino acid Pro in the 5th position from the N-terminus of SEQ ID NO:19 is susceptible to acetylation in the presence of acetic acid. Without being limited by theory, it is hypothesized that as the direction of synthesis is from the C-terminus to the N-terminus, instead of addition of the amino acid Arg in the 4th position from the N-terminus following addition of the amino acid Pro in the 5th position, acetic acid was able to form an amino acid bond with the terminal proline.
Moreover, the concentration of acetic acid in a synthesis reagent can be correlated with the signal output characteristic of the interaction of the streptavidin receptor with the control peptide feature (SEQ ID NO:19) or the truncated version thereof (SEQ ID NO:20). […] However, the amino acids at the N-terminus should be selected such that there is a detectable difference in the interaction of streptavidin with the alternative control peptide.
To illustrate the detection of varying concentrations of acetic acid in a peptide synthesis reagent, four different NPPOC-protected arginine reagent solutions were prepared with differing concentrations (volume %) of acetic acid. A first arginine solution included no detectable amount of acetic acid (i.e., about 0.00%), a second arginine solution included 0.03% acetic acid, a third arginine solution included a 0.18% acetic acid, and a fourth arginine solution included 0.38% acetic acid. Four different synthetic peptide populations were synthesized using one of the four arginine solutions, and the signal output characteristic of the interaction of the streptavidin receptor with each of the control peptide features (SEQ ID NO:19) or the truncated versions thereof (SEQ ID NO:20) was determined (FIG. 24). […] In the present example, the raw signal output associated with the arginine reagent solution including 0.03% acetic acid was 1000 units, whereas the signal output associated with the arginine reagent solutions including 0.38% acetic acid was about 30,000 units. […]

Experiment [2] addresses streptavidin (Streptomyces avidinii, UniProt P22629). Put plainly: Streptavidin receptor interaction with control peptide features on a peptide array, fluorescence signal (substitution/deletion profiles). The format is binding. The following applies: raw fluorescence signal of streptavidin interaction with control peptide; variants at 6th position from N-terminus (FIG. 8A). An excerpt:
A number of receptor molecules 616 are shown as interacting with the peptide feature 606. Interaction of the receptor molecules 616 with the peptide feature 606 can include binding, catalysis of (or participation in) a reaction including peptides within the peptide feature 606, digestion of the peptides within the feature 606, the like, and combinations thereof. In the present example shown in FIGS. 6A-6C, the receptor 616 was used in the identification of the peptide binder sequence represented by the peptides in the feature 606 (i.e., [N]-Gly-Phe-Glu-Asp-Tyr-Leu-Gly-Glu-Tyr-His-Gly-[C] (SEQ ID NO:1)). […] In one aspect, the interaction of the receptor molecules 616 with the population of peptide features 602 on the peptide array 600 can be detected, for example, by labelling the receptor molecules 616 with a detectable tag 618 (FIG. 6C). […]
In a next step 660 of the method 650, the synthetic peptide population is interrogated in the presence of a receptor having an affinity for the peptide binder sequences encoded by the control peptides. […] Thereafter, in a step 662 of the method 650, an output of the peptide-receptor interaction is detected. […] Accordingly, based on the output detected in the step 662, a step 664 of the method 650 can include assessing the fidelity of amino acid incorporation. […]

No end group written: not given here.

streptavidin, sequence (P22629 25-183, species assumed): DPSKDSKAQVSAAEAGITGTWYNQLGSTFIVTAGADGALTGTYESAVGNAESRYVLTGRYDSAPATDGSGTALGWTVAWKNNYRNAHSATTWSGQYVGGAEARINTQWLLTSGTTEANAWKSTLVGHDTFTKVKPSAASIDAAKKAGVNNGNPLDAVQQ

With “*PGWKLAG (Ac-PGWKLAG) [*PGWKLAG (SEQ ID NO:20), *P is acetylated N-terminal Pro]”, the “affinity towards an engineered form of the protein streptavidin” value in experiment [1] (acetylated truncated peptide on array (FIG. 24)) is given as “exhibit intrinsic affinity”.
For GWTHPMFEQKG [GWTHPMFEQKG (SEQ ID NO:2)], the average raw signal in experiment [2] is listed as 18,000 units.
Consider “GYERPGWKLAG [GYERPGWKLAG (SEQ ID NO:19), control peptide to detect acetic acid contamination in synthesis reagents]”, for which the “increase in raw signal” value in experiment [1] (acetic acid in arginine reagent raised from 0.03% to 0.38%) is listed as 30 fold. For the same substance, the raw signal output in experiment [1] (control peptide features (SEQ ID NO:19 or truncated SEQ ID NO:20) synthesized with arginine reagent solution including 0.03% acetic acid (FIG. 24)) came to 1000 units. In experiment [1] (control peptide features (SEQ ID NO:19 or truncated SEQ ID NO:20) synthesized with arginine reagent solution including 0.38% acetic acid (FIG. 24)), the signal output result is “about 30,000 units”.

These data come from patent US10641778B2, “System and method for analysis of peptide synthesis fidelity” (Roche Sequencing Solutions, Inc., priority 2015, dated 2020).
